# In PMC12673578 (Molecular Pharmaceutics, 2025):
# Values joined by “and” are separate entries in the source; they are usually repeats but may differ in a detail not shown here. Equal entries are not always repeated. Where two headings read alike, the source gives them in different places.
# B1: rCYP1A2 (Homo sapiens) (protein)
# chain: MALSQSVPFSATELLLASAIFCLVFWVLKGLRPRVPKGLKSPPEPWGWPLLGHVLTLGKNPHLALSRMSQRYGDVLQIRIGSTPVLVLSRLDTIRQALVRQGDDFKGRPDLYTSTLITDGQSLTFSTDSGPVWAARRRLAQNALNTFSIASDPASSSSCYLEEHVSKEAKALISRLQELMAGPGHFDPYNQVVVSVANVIGAMCFGQHFPESSDEMLSLVKNTHEFVETASSGNPLDFFPILRYLPNPALQRFKAFNQRFLWFLQKTVQEHYQDFDKNSVRDITGALFKHSKKGPRASGNLIPQEKIVNLVNDIFGAGFDTVTTAISWSLMYLVTKPEIQRKIQKELDTVIGRERRPRLSDRPQLPYLEAFILETFRHSSFLPFTIPHSTTRDTTLNGFYIPKKCCVFVNQWQVNHDPELWEDPSEFRPERFLTADGTAINKPLSEKMMLFGMGKRRCIGEVLAKWEIFLFLAILLQQLEFSVPPGVKVDLTPIYGLTMKHARCEHVQARLRFSIN
# B2: rCYP2C19 (Homo sapiens) (protein)
# chain: MDPFVVLVLCLSCLLLLSIWRQSSGRGKLPPGPTPLPVIGNILQIDIKDVSKSLTNLSKIYGPVFTLYFGLERMVVLHGYEVVKEALIDLGEEFSGRGHFPLAERANRGFGIVFSNGKRWKEIRRFSLMTLRNFGMGKRSIEDRVQEEARCLVEELRKTKASPCDPTFILGCAPCNVICSIIFQKRFDYKDQQFLNLMEKLNENIRIVSTPWIQICNNFPTIIDYFPGTHNKLLKNLAFMESDILEKVKEHQESMDINNPRDFIDCFLIKMEKEKQNQQSEFTIENLVITAADLLGAGTETTSTTLRYALLLLLKHPEVTAKVQEEIERVIGRNRSPCMQDRGHMPYTDAVVHEVQRYIDLIPTSLPHAVTCDVKFRNYLIPKGTTILTSLTSVLHDNKEFPNPEMFDPRHFLDEGGNFKKSNYFMPFSAGKRICVGEGLARMELFLFLTFILQNFNLKSLIDPKDLDTTPVVNGFASVPPFYQLCFIPV
# B3: rCYP2C9 (Homo sapiens) (protein)
# chain: MDSLVVLVLCLSCLLLLSLWRQSSGRGKLPPGPTPLPVIGNILQIGIKDISKSLTNLSKVYGPVFTLYFGLKPIVVLHGYEAVKEALIDLGEEFSGRGIFPLAERANRGFGIVFSNGKKWKEIRRFSLMTLRNFGMGKRSIEDRVQEEARCLVEELRKTKASPCDPTFILGCAPCNVICSIIFHKRFDYKDQQFLNLMEKLNENIKILSSPWIQICNNFSPIIDYFPGTHNKLLKNVAFMKSYILEKVKEHQESMDMNNPQDFIDCFLMKMEKEKHNQPSEFTIESLENTAVDLFGAGTETTSTTLRYALLLLLKHPEVTAKVQEEIERVIGRNRSPCMQDRSHMPYTDAVVHEVQRYIDLLPTSLPHAVTCDIKFRNYLIPKGTTILISLTSVLHDNKEFPNPEMFDPHHFLDEGGNFKKSKYFMPFSAGKRICVGEALAGMELFLFLTSILQNFNLKSLVDPKNLDTTPVVNGFASVPPFYQLCFIPV
# Tests used:
# CYP3A = conditions: ketoconazole coadministered, literature value, cited from earlier work
# rCYP1A2 = rCYP1A2 (Homo sapiens, UniProt P05177)
# Protocol: (§1) The samples were analyzed using an LC-MS/MS system consisting of microflow LC and Xevo-TQ-XS MS systems (Waters, Milford, MA). An Acquity UPLC HSS T3 C18 column ([…]) equipped with a guard column (Vanguard precolumn, […], 2.1 × 5 mm) was used for the analysis. […] The mass spectrometer was operated in multiple reaction monitoring (MRM) and positive ionization modes with a cone voltage of 30 V using an electrospray ionization source.
# (§2) The relative expression factor (REF) for the rCYPs and rCES was calculated by using eq . 2 REF=CYPorCEScontentinpooledHLM(permgprotein)/CYPorCES content in the recombinant system (per mg protein)
# (§3) 3 Rateofmetabolism=Vmax×S/Km+S
# (§4) The CLint, total for each isoform was then multiplied with the respective REF values, and fraction metabolized (f m) is calculated as shown in eq . 4 fm,CYPi=ScaledCLint,total,2−oxo−clopidogrelCYPi/ScaledactivityCYPall×100
# rCYP2B6 = rCYP2B6 (Homo sapiens, UniProt P20813)
# Chain of rCYP2B6 (P20813 whole entry): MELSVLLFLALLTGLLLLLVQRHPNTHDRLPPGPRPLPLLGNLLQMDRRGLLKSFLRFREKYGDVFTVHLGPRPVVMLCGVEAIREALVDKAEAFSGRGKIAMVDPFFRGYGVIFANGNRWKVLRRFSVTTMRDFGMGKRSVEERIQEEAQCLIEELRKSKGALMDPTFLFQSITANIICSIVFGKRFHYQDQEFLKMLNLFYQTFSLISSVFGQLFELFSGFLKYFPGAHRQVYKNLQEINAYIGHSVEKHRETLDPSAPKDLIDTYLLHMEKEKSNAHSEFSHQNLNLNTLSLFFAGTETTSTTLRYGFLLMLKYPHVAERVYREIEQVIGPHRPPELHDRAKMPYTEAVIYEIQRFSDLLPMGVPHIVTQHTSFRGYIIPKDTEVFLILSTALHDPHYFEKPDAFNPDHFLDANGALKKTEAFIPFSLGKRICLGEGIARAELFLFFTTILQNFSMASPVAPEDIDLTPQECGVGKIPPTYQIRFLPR
# Protocol: as §1, §2, §3, §4
# rCYP2C19 = rCYP2C19 (Homo sapiens, UniProt P33261)
# Protocol: as §1, §2, §3, §4
# rCYP2C9 = rCYP2C9 (Homo sapiens, UniProt P11712)
# Protocol: as §1, §2, §3, §4
# rCES1 = rCES1 (Homo sapiens, UniProt P23141); conditions: rCES1 0.1 mg/mL, clopidogrel 0.9–240 μM, 30 min, 37 °C
# Chain of rCES1 (P23141 18-567): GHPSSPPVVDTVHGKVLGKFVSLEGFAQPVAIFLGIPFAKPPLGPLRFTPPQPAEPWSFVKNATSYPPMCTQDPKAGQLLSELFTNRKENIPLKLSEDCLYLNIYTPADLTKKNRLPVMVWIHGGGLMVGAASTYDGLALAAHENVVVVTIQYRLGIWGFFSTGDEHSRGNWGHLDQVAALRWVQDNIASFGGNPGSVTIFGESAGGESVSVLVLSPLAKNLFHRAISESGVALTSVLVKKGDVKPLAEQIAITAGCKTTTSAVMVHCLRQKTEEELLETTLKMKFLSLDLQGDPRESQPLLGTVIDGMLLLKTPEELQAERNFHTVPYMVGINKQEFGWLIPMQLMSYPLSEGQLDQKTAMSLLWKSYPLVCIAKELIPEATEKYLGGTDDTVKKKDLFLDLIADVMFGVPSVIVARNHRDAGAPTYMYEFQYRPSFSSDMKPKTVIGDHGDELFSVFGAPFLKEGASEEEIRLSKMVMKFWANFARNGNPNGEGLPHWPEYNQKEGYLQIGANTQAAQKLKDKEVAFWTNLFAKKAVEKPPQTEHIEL
# Protocol: (§5) The samples were analyzed using an LC-MS/MS system consisting of microflow LC and Xevo-TQ-XS MS systems (Waters, Milford, MA). An Acquity UPLC HSS T3 C18 column (1.8 mm, 1 mm × 100 × 100 mm) equipped with a guard column (Vanguard precolumn, 1.8 mm, 2.1 × 5 mm) was used for the analysis. […] The mass spectrometer was operated in multiple reaction monitoring (MRM) and positive ionization modes with a cone voltage of 30 V using an electrospray ionization source.
# [1] = pooled fractions 0.5 mg/mL, clopidogrel 150 μM
# Protocol: The protein concentration was maintained at 0.5 mg/mL, and all incubations were conducted in triplicates in a water bath shaker at 37 °C with incubation volumes of 100 μL each. […] Samples were centrifuged at 10,000g for 5 min (4 °C), and the supernatants were collected and diluted 10-fold using a 75:25 (0.1% formic acid in ACN/0.1% formic acid in water) solution before being transferred to an LC-MS vial for analysis.
# as §5
# [2] = following oral administration; literature value; cited from earlier work
# CES1 G143E variant = conditions: second cited study; literature value; cited from earlier work
# not read = substrate: COC(=O)[C@H](c1ccccc1Cl)N1CCc2sccc2C1; assay: not read; conditions: 5 min, 37 °C
# [3] = other: rCYP1A2, clopidogrel 0.3–160 μM
# [4] = other: rCYP2C19, clopidogrel 0.3–160 μM
# [5] = other: rCYP2C9, clopidogrel 0.3–160 μM
molecule,measurement,setting,value
"CC(=O)N1CCN(c2ccc(OCC3COC(Cn4ccnc4)(c4ccc(Cl)cc4Cl)O3)cc2)CC1 (centres unmarked) [Ketoconazole, ketoconazole]",Reduction of AUC0–24 of clopidogrel active metabolite,CYP3A; after 75 mg clopidogrel maintenance dose (MD),29%
same,Reduction of AUC0–24 of clopidogrel active metabolite,CYP3A; after 300 mg clopidogrel loading dose (LD),22%
same,Decrease of C max of the active metabolite,CYP3A; following LD,48%
same,Decrease of C max of the active metabolite,CYP3A; following MD,61%
COC(=O)[C@H](c1ccccc1Cl)N1CCc2sccc2C1 [clopidogrel],f m,rCYP1A2; fraction of 2-oxo-clopidogrel formation by CYP1A2,0.6%
same,K m of 2-oxo-clopidogrel formation,rCYP1A2; rCYP1A2,17.0 µM
same,CLint,rCYP2B6,15.8 μL/mg protein/min
same,CLint *REF,rCYP2B6,0.09 μL/mg protein/min
same,f m,rCYP2B6,1.5%
same,CLint (V max/K m),rCYP2B6; recombinant enzyme,1.8 μL/pmol P450/min
same,f m,rCYP2C19; fraction of 2-oxo-clopidogrel formation by CYP2C19,0.1%
same,K m of 2-oxo-clopidogrel formation,rCYP2C19; rCYP2C19,13.8 ± 5.5 µM and 13.8 µM
same,f m,rCYP2C9; fraction of 2-oxo-clopidogrel formation by CYP2C9,40.3%
same,K m of 2-oxo-clopidogrel formation,rCYP2C9; rCYP2C9,20.6 µM
same,K m for CCA formation,rCES1,14.92 ± 4.8 µM
same,CCA formation rate normalized with CES1 content (pmol/min/pmol CES1) in HLS9 versus HLM,[1],two-fold higher
same,Rate of formation of 2-oxo-clopidogrel in HLM (pmol/min/mg protein) versus HLS9,[1],two-fold higher
same,Rate of formation of CCA in HLM (pmol/min/mg protein) versus HLS9,[1],two-fold higher
same,Fraction of the drug absorbed,[2],approximately 50%
same,Increase in platelet aggregation inhibition in G143E carriers compared to noncarriers,CES1 G143E variant,19%
B1,kcat,not read; [3],0.258 s⁻¹
same,kcat/Km,not read; [3],0.9 μL/pmol P450/min
B2,kcat,not read; [4],0.36 s⁻¹
same,kcat/Km,not read; [4],1.6 μL/pmol P450/min
B3,kcat,not read; [5],0.387 s⁻¹
same,kcat/Km,not read; [5],1.1 μL/pmol P450/min
